{"source": "patent US20130196000A1", "about": "“COMBINATION THERAPY INCLUDING ISOPHO[…], ANALOGS, OR SALTS THEREOF” (ZIOPHARM ONCOLOGY, INC., priority 2012, published 2013)", "experiment": "Multicenter phase Ib open-label dose-escalation study of IPM-tris plus carboplatin/etoposide (PaCE): safety, DLT and MTD", "assay_type": "in vivo, human", "protocol": "A multicenter phase I, open-label, dose-escalation study assessing the safety and efficacy of IPM-tris in combination with carboplatin (C) and etoposide (E) (PaCE regimen) in SCLC and in other cancers in which C+E is considered appropriate was conducted. Tumor responses were assessed by RECIST 1.1 and relevant tumor markers.\nTo be eligible, each subject met each of the following criteria: (i) age >18 years; (ii) subject with documentation of a malignancy scheduled to receive etoposide and carboplatin therapy (including, but not limited to testicular cancer, thymoma, ovarian cancer, osteosarcoma, non-small cell lung cancer, and small cell lung cancer); (iii) ECOG Performance Status of 0 or 1; (iv) adequate bone marrow, liver, and renal function, as assessed by the following laboratory requirements conducted within 14 days prior to dosing; and (v) subjects for whom there is no curative standard therapy.\nIPM tris(hydroxymethyl)methylammonium salt (IPM-tris) was given by intravenous (IV) infusion over approximately 30 minutes on days 1, 2, and 3 of each 21 day cycle. Each IPM-tris infusion to a subject was completed within 1 hour (and not more than 90 minutes) of dose preparation in the IV bag. Etoposide was given by IV infusion over approximately 60 minutes on days 1, 2, and 3 of each 21 day cycle. Carboplatin was given by IV infusion over approximately 30 minutes on day 1 of each 21 day cycle.\nEach vial of IPM-tris was reconstituted with 14.6% sodium chloride for Injection, to a final concentration of 50.0 mg per mL. If the 14.6% sodium chloride diluent was not available, sites used 5.0%, 5.7%, 8.5%, or 0.9% sodium chloride for injection as the reconstitution diluent according to the same reconstitution instructions. Other standard sodium chloride solutions commercially available in other countries can be used to reconstituted IPM-tris. The IV infusion of IPM-tris was completed within 2.5 hours of reconstitution in the vial.\nThe doses of IPM-tris, etoposide, and carboplatin for each subject were calculated by the pharmacist based on the dose level and the subject's body surface area (BSA) on the first day of each cycle. BSA was calculated using their Institutional guidelines for calculating BSA or, the calculation for BSA by the Mosteller formula was used (note: SQRT=square root): […]\nThe maximum tolerable dose (MTD) of IPM-tris when administered in combination with etoposide and carboplatin at fixed doses (90 mg/m^2 and AUC 4, respectively) was determined An additional dose cohort was also evaluated using an escalated dose level of etoposide (100 mg/m^2) in combination with the IPM-tris MTD and carboplatin (AUC 4). Once the recommended doses were determined, this combination regimen was further studied in subjects with small cell lung cancer.", "data": [{"smiles": "NC(CO)(CO)CO.O=P(O)(NCCCl)NCCCl", "note": "[IPM-tris, IPM tris(hydroxymethyl)methylammonium salt]", "values": [{"measurement": "patients with dose limiting toxicity (neutropenic fever)", "setting": "at 150 mg/m^2 of IPM-tris", "value": "one"}, {"measurement": "maximum tolerated dose of IPM-tris", "setting": "in combination with etoposide 90 mg/m^2 and carboplatin AUC 4 (Cohort 2), IV days 1, 2, 3 of 21 day cycle", "value": "**Based on dose escalation cohorts completed prior to Amendment 6, the maximum tolerated dose of IPM-tris was determined to be 130 mg/m^2 when administered in combination with etoposide 90 mg/m^2 and carboplatin AUC 4 (Cohort 2)."}, {"measurement": "maximum tolerated dose of IPM-tris", "setting": "in combination with etoposide 100 mg/m^2 and carboplatin AUC 4", "value": 130, "unit": "mg/m^2"}, {"measurement": "IPM-tris dosage found to result in DLT", "setting": "in combination with etoposide and carboplatin", "value": 150, "unit": "mg/m^2/day"}]}]}
